Assay [1] has as its system monocyte/macrophages. The settings on record: Thieringer et al.; cited from earlier work.
For assay [2], the system named is IL-2 secretion in human T lymphocytes. The assay is described as follows: Inhibition of PHA/PMA-induced IL-2 secretion in human T lymphocytes. The class given is cell-based. The settings on record: for activation of IL-2 production: 5 micromolar, preincubation 12 hours prior to activator. On the procedure:
The following test can be used to detect whether an insulin sensitizing agent is also able to inhibit IL-2 production. Isolated human T lymphocytes or a mammalian lymphocyte cell line which expresses PPARgamma is stimulated with one or a combination of PHA/PMA, TNF-alpha, interferon-gamma or some other factor that activates induction of IL-2 gene expression. Production of IL-2 is determined by measuring the concentration of IL-2 in the supernatant from cells using Endogen kits (Wolbum), as described by Yang et al.

The test system of assay [3] is NFAT. Put plainly: Inhibition of NFAT activation, electrophoretic mobility shift assay. The settings on record: 5 micromolar; preincubation 2 hours prior to activator. It is filed as cell-based, human. On the procedure:
Isolated human T lymphocytes or a mammalian cell line such as a Jurkat T cell line which expresses PPARgamma is stimulated with a concentration of one or a combination of PHA/PMA, TNF-alpha, interferon-gamma or some other factor that activates NFAT. Transcriptional activation of NFAT is determined by electrophoretic mobility shift assay similar to that described by Yang et al.

The subject of assay [4] is NF-kappaB. The assay is described as follows: Inhibition of NF-kappaB activation, electrophoretic mobility shift assay. The class given is cell-based, human. To be noted: 5 micromolar; preincubation 2 hours prior to activator. On the procedure: The following test can be used to generically identify compounds of use in this invention based upon their ability to act as an agonist of PPAR. […] The rexinoid, LG100754 is a selective RXR/PPARgamma agonists. These compounds are tested for the ability to inhibit activity of NF-kappaB. Isolated human T lymphocytes or a mammalian cell line such as a Jurkat T cell line which expresses PPARgamma is stimulated with a concentration of one or a combination of: phytohemagglutinin/phorbol 12-myristate 13-acetate (PHA/PMA), TNF-alpha, interferon-gamma or some other factor that activates NF-kappaB. Activation of NF-kappaB is determined by electrophoretic mobility shift assay similar to that described by Rossi et al.

The mark [5] stands for this setting: 10 uM, preincubated with drug for 24 hr, +PHA/PMA.

Here are results for five compounds from US20020019344A1, “Methods of preventing allograft rejection” (priority 2000, published 2002).

The structures appear in SMILES notation. Where two headings read alike, the source gives them in different places.

For the compound `Cc1oc(-c2ccccc2)nc1C(O)COc1ccc(CC2SC(=O)NC2=O)cc1` (centres unmarked) [AD-5075], the “effect on TNF-alpha and lipopolysaccharide production” value in assay [1] is reported as “no effect”.

Consider `CN(CCOc1ccc(CC2SC(=O)NC2=O)cc1)C(=O)CCCCC1CCSS1` (centres unmarked) [BP1-003], for which, in assay [2] (setting [5]), the IL-2 released came to 37 ± 7 pg/ml supernatant and the “Percent Inhibition” value is 92%.

In the case of `CCCOc1cc2c(cc1\C(C)=C/C=C/C(C)=C/C(=O)O)C(C)(C)CCC2(C)C` [LG100754], the “activation of IL-2 production” value in assay [2] is listed as “inhibits the activation of IL-2 production”. In addition, the “activation of NFAT” value in assay [3] is “inhibits the activation of NFAT”. Besides, the “activation of NF-kappaB” value in assay [4] was “inhibits the activation of NF-kappaB”.

As to `CCCCC[C@H](O)/C=C/[C@H]1C(=O)C=C[C@@H]1C/C=C\CCCC(=O)O` [prostaglandin J2], the “activation of IL-2 production” value in assay [2] is reported as “inhibits the activation of IL-2 production”. Besides, in assay [3], the “activation of NFAT” value is listed as “inhibits the activation of NFAT”. Besides, in assay [4], the “activation of NF-kappaB” value was “inhibits the activation of NF-kappaB”.

In the case of `CN(CCOc1ccc(CC2SC(=O)NC2=O)cc1)c1ccccn1` (centres unmarked) [rosiglitazone], the IL-2 released in assay [2] (0.1 uM, preincubated with drug for 12 hr, +PHA/PMA) came out at 481 ± 11 c.p.m; in assay [2] (1.0 uM, preincubated with drug for 12 hr, +PHA/PMA) it was 406 ± 12 c.p.m; in assay [2] (10 uM, preincubated with drug for 12 hr, +PHA/PMA) it was 323 ± 26 c.p.m; in assay [2] (setting [5]), 112 ± 7 pg/ml supernatant. In addition, in assay [2] (Homo sapiens, T-lymphocyte, 0.1 uM, preincubated with drug for 12 hr, +PHA/PMA, read-out: Percent Inhibition), the inhibition at 0.1 µM turned out to be 12%. The inhibition at 1 µM in assay [2] (Homo sapiens, T-lymphocyte, 1.0 uM, preincubated with drug for 12 hr, +PHA/PMA, read-out: Percent Inhibition) came to 25%. The inhibition at 10 µM in assay [2] (Homo sapiens, T-lymphocyte, 10 uM, preincubated with drug for 12 hr, +PHA/PMA, read-out: Percent Inhibition) came to 41%; in assay [2] (Homo sapiens, T-lymphocyte, 10 uM, preincubated with drug for 24 hr, +PHA/PMA, read-out: Percent Inhibition), 75%.
